Measured values as given in patent US10118895B2, “ROR gamma (RORγ) modulators” (LEAD PHARMA HOLDING B.V., priority 2015, dated 2018).

target: T1, RORγ (Homo sapiens, UniProt P51449); assay: RORγ GAL4 reporter gene assay (luciferase readout, 293FT cells); format: cell-based; conditions: inhibition of RORγ (GAL4-RORγ-LBD) in transfected 293FT cells, luciferase signal, overnight incubation; read-out: mean pIC50 (converted)
T1 construct: expressed in transfected cells; host or cells: 293FT cells (Invitrogen), expression vector pFN26A (Promega)
T1 sequence (P51449 269-508 limits assumed): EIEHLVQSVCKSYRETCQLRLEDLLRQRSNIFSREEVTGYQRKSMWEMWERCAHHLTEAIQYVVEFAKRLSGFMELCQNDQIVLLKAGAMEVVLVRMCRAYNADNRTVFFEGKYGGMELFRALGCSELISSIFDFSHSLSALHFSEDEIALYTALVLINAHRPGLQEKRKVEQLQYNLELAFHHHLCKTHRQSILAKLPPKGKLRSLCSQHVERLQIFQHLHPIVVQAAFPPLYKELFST
Method: RORγ GAL4 Reporter Gene Assay
Example inhibitors 1-38 were tested for their ability to inhibit RORγ activity in a RORγ GAL4 reporter gene assay. The assay procedure and results are described below.
RORγ GAL4 Reporter Gene Assay Description
A GAL4 one-hybrid reporter system employing luciferase readout was established to determine inhibition of RORγ in 293FT cells. The RORγ ligand-binding domain (LBD) was fused to the yeast GAL4 DNA binding domain (DBD) and placed under the control of the human cytomegalovirus (CMV) immediate early promoter, using expression vector pFN26A (Promega) and standard recombinant DNA cloning methods. To serve as a control in the assay, a similar vector was generated in which the GAL4-DBD was fused to Herpes simplex virus protein 16 (VP16), a constitutive transcriptional activator.
To monitor the inhibitory effect of compounds on RORγ, a transcriptional reporter construct was used. The pGL4.35 vector (Promega) contains nine copies of the GAL4 Upstream Activator Sequence (UAS). This sequence drives the transcription of the luciferase reporter gene luc2P in response to binding of a fusion protein containing the GAL4 DNA binding domain, as for example expressed by the GAL4-RORγ-LBD and GAL4-VP16 expression vectors described above. To allow a GAL4 fusion protein to drive the expression of the luciferase reporter, the pGL4.35 expression vector and the appropriate GAL4 fusion protein expression vector were bulk transfected in the 293FT cells using standard transfection techniques.
The day after transfection, cells were plated into 96 well plates, test compound was added and the plates were incubated overnight. Subsequently, the firefly luciferase activity was quantified using luciferase detection reagent and luminescence readout.
Detailed Assay Description
293FT cells (Invitrogen) were transfected with a GAL4 fusion protein expression vector (as described above) and the transcriptional reporter construct (pGL4.35, Promega). 60 μL of TransIT-293 transfection reagent (Mirus Bio) was added drop wise to 1500 μl Opti-MEM I Reduced Serum Medium (Invitrogen) and incubated at RT (RT) for 5 to 20 minutes. 1500 μL of this reagent mixture was added to 5 μg of GAL4 fusion protein expression vector and 5 μg of the transcriptional reporter construct, and incubated at RT for 20 minutes.
To harvest 293FT cells from a T75 flask, first the culture medium was taken off the cells. Subsequently, the cells were washed with Phosphate Buffered Saline (PBS) (Lonza), after which the PBS was removed. To dissociate the cells, 1 ml of TrypLE Express (Invitrogen) was added to the flask, followed by incubation at RT until the cells visually started to detach. Cells were collected in 5 mL of assay medium (DMEM culture medium (Lonza), 10% dialyzed FBS (Invitrogen) and Pen/Strep (Lonza)) to achieve a single cell suspension. 10×10^6 cells were spun down and re-suspended in 10 mL of assay medium. Subsequently, the cell suspension was added to the transfection mix tube, and then transferred as a whole to a T75 flask (Greiner), followed by overnight (16-24 hours) incubation at 37° C. and 5% CO2.
For compound screening, the cells were harvested (as described above) and counted. 13×10^6 cells were spun down, the supernatant was aspirated and the cells were re-suspended in 17.3 mL of assay medium obtaining a cell suspension of 0.75×10^6 cells/mL. 80 μL of cell suspension (60,000 cells) was plated per well into a white, flat bottom, tissue culture treated, 96 well screening plates (Greiner).
Test compounds were diluted, starting from a 10 mM dimethylsulfoxide (DMSO) stock solution, to serial dilutions in DMSO at 500× the final test concentration. Subsequently, these solutions were diluted to 5× the final test concentration in two 10-fold-dilution steps in assay medium. The final DMSO concentration of the 5× test compound solution was 1%. […]

Row | SMILES | IC50 [nM]
1 | O=C(Cc1ccc(S(=O)(=O)CC2CC2)nc1)Nc1ccc(C(O)(C(F)(F)F)C(F)(F)F)cc1 [Example 1, 2-[6-(cyclopropylmethylsulfonyl)-3-pyridyl]-N-[4-[2,2,2-trifluoro-1-hydroxy-1-(trifluoromethyl)ethyl]phenyl]acetamide] | ≤ 100
2 | CC(C)CC(O)(c1ccc(NC(=O)Cc2ccc(S(=O)(=O)CC3CC3)nc2)cc1)C(F)(F)F (stereo not shown) [Example 12, 2-[6-(cyclopropylmethylsulfonyl)-3-pyridyl]-N-[4-[1-hydroxy-3-methyl-1-(trifluoromethyl)butyl]phenyl]acetamide] | ≤ 100
3 | O=C(Cc1ccc(S(=O)(=O)CC2CC2)nc1)Nc1ccc(C(O)(C(F)(F)F)C(F)(F)F)c(F)c1 [Example 4, 2-[6-(cyclopropylmethylsulfonyl)-3-pyridyl]-N-[3-fluoro-4-[2,2,2-trifluoro-1-hydroxy-1-(trifluoromethyl)ethyl]phenyl]acetamide] | ≤ 100
4 | O=C(Cc1ccc(S(=O)(=O)CC2CC2)nc1)Nc1ccc(C(O)(C(F)(F)F)C(F)(F)F)cn1 [Example 10, 2-[6-(cyclopropylmethylsulfonyl)-3-pyridyl]-N-[5-[2,2,2-trifluoro-1-hydroxy-1-(trifluoromethyl)ethyl]-2-pyridyl]acetamide] | ≤ 1000
5 | O=C(Cc1ccc(S(=O)(=O)CC2CC2)nc1)Nc1ccc(C(O)(C(F)(F)F)C(F)(F)F)c(Cl)c1 [Example 5, N-[3-chloro-4-[2,2,2-trifluoro-1-hydroxy-1-(trifluoromethyl)ethyl]phenyl]-2-[6-(cyclopropylmethylsulfonyl)-3-pyridyl]acetamide] | ≤ 100
6 | COC(c1ccc(NC(=O)Cc2ccc(S(=O)(=O)CC3CC3)nc2)cc1)(C(F)(F)F)C(F)(F)F [Example 2, 2-[6-(cyclopropylmethylsulfonyl)-3-pyridyl]-N-[4-[2,2,2-trifluoro-1-methoxy-1-(trifluoromethyl)ethyl]phenyl]acetamide] | ≤ 100
7 | COc1cc(C(O)(C(F)(F)F)C(F)(F)F)ccc1NC(=O)Cc1ccc(S(=O)(=O)CC2CC2)nc1 [Example 9, 2-[6-(cyclopropylmethylsulfonyl)-3-pyridyl]-N-[2-methoxy-4-[2,2,2-trifluoro-1-hydroxy-1-(trifluoromethyl)ethyl]phenyl]acetamide] | ≤ 1000
8 | O=C(Cc1ccc(S(=O)(=O)CC2CC2(F)F)nc1)Nc1ccc(C(O)(C(F)(F)F)C(F)(F)F)cc1 (racemic) [(−)-22, (−)-2-[6-[(2,2-difluorocyclopropyl)methylsulfonyl]-3-pyridyl]-N-[4-[2,2,2-trifluoro-1-hydroxy-1-(trifluoromethyl)ethyl]phenyl]acetamide] | ≤ 1000
9 | Cc1cc(NC(=O)Cc2ccc(S(=O)(=O)CC3CC3)nc2)ccc1C(O)(C(F)(F)F)C(F)(F)F [Example 3, 2-[6-(cyclopropylmethylsulfonyl)-3-pyridyl]-N-[3-methyl-4-[2,2,2-trifluoro-1-hydroxy-1-(trifluoromethyl)ethyl]phenyl]acetamide] | ≤ 100

Other lines, results leading:

Row | IC50 [nM] | SMILES
10 | ≤ 100 | COCCOC(c1ccc(NC(=O)Cc2ccc(S(=O)(=O)CC3CC3)nc2)cc1)(C(F)(F)F)C(F)(F)F [Example 27, 2-[6-(cyclopropylmethylsulfonyl)-3-pyridyl]-N-[4-[2,2,2-trifluoro-1-(2-methoxyethoxy)-1-(trifluoromethyl)ethyl]phenyl]acetamide]
11 | ≤ 1000 | O=C(Cc1ccc(S(=O)(=O)CC2CC2)nc1)Nc1ccc(C(O)(CC2CCCC2)C(F)(F)F)cc1 (stereo not shown) [Example 15, N-[4-[1-(cyclopentylmethyl)-2,2,2-trifluoro-1-hydroxy-ethyl]phenyl]-2-[6-(cyclopropylmethylsulfonyl)-3-pyridyl]acetamide]
12 | ≤ 100 | CC(C)OC(c1ccc(NC(=O)Cc2ccc(S(=O)(=O)CC3CC3)cn2)cc1)(C(F)(F)F)C(F)(F)F [Example 30, 2-[5-(cyclopropylmethylsulfonyl)-2-pyridyl]-N-[4-[2,2,2-trifluoro-1-isopropoxy-1-(trifluoromethyl)ethyl]phenyl]acetamide]
13 | ≤ 1000 | O=C(Cc1ccc(S(=O)(=O)CC2CC2)nc1)Nc1ccc(C(OCC2COC2)(C(F)(F)F)C(F)(F)F)cc1 [Example 26, 2-[6-(cyclopropylmethylsulfonyl)-3-pyridyl]-N-[4-[2,2,2-trifluoro-1-(oxetan-3-ylmethoxy)-1-(trifluoromethyl)ethyl]phenyl]acetamide]
14 | ≤ 1000 | O=C(Cc1ccc(S(=O)(=O)CC2CC2)cn1)Nc1ccc(C(O)(C2CC2)C2CC2)cc1 [Example 33, 2-[5-(cyclopropylmethylsulfonyl)-2-pyridyl]-N-[4-[dicyclopropyl(hydroxy)methyl]phenyl]acetamide]
15 | ≤ 100 | O=C(Cc1ccc(S(=O)(=O)CC2CC2)cn1)Nc1ccc(C(O)(C(F)(F)F)C(F)(F)F)cc1 [Example 29, 2-[5-(cyclopropylmethylsulfonyl)-2-pyridyl]-N-[4-[2,2,2-trifluoro-1-hydroxy-1-(trifluoromethyl)ethyl]phenyl]acetamide]
16 | ≤ 1000 | CCC(O)(c1ccc(NC(=O)Cc2ccc(S(=O)(=O)CC3CC3)nc2)cc1)C(F)(F)F (racemic) [Example 20, 2-[6-(cyclopropylmethylsulfonyl)-3-pyridyl]-N-[4-[1-hydroxy-1-(trifluoromethyl)propyl]phenyl]acetamide]
17 | ≤ 1000 | CC(C)CCC(O)(c1ccc(NC(=O)Cc2ccc(S(=O)(=O)CC3CC3)nc2)cc1)C(F)(F)F (stereo not shown) [Example 13, 2-[6-(cyclopropylmethylsulfonyl)-3-pyridyl]-N-[4-[1-hydroxy-4-methyl-1-(trifluoromethyl)pentyl]phenyl]acetamide]
18 | ≤ 100 | COC(c1ccc(NC(=O)Cc2ccc(S(=O)(=O)CC3CC3)cn2)cc1)(C(F)(F)F)C(F)(F)F [Example 34, 2-[5-(cyclopropylmethylsulfonyl)-2-pyridyl]-N-[4-[2,2,2-trifluoro-1-methoxy-1-(trifluoromethyl)ethyl]phenyl]acetamide]
19 | ≤ 1000 | O=C(Cc1ccc(S(=O)(=O)CC2CC2)nc1)Nc1ccc(C(OCCO)(C(F)(F)F)C(F)(F)F)cc1 [Example 28, 2-[6-(cyclopropylmethylsulfonyl)-3-pyridyl]-N-[4-[2,2,2-trifluoro-1-(2-hydroxyethoxy)-1-(trifluoromethyl)ethyl]phenyl]acetamide]
20 | ≤ 100 | O=C(Cc1ccc(S(=O)(=O)CC2CC2)nc1)Nc1ccc(C(O)(c2ccccc2)C(F)(F)F)cc1 (stereo not shown) [Example 19, 2-[6-(cyclopropylmethylsulfonyl)-3-pyridyl]-N-[4-(2,2,2-trifluoro-1-hydroxy-1-phenyl-ethyl)phenyl]acetamide]
21 | ≤ 1000 | O=C(Cc1ccc(S(=O)(=O)CC2CC2)nc1)Nc1ccc(C(O)(C2CC2)C2CC2)cc1 [Example 18, 2-[6-(cyclopropylmethylsulfonyl)-3-pyridyl]-N-[4-[dicyclopropyl(hydroxy)methyl]phenyl]acetamide]
22 | ≤ 1000 | Cc1cc(S(=O)(=O)CC2CC2)ncc1CC(=O)Nc1ccc(C(O)(C(F)(F)F)C(F)(F)F)cc1 [Example 23, 2-[6-(cyclopropylmethylsulfonyl)-4-methyl-3-pyridyl]-N-[4-[2,2,2-trifluoro-1-hydroxy-1-(trifluoromethyl)ethyl]phenyl]acetamide]
